1 substance from PMC11187126, “Structure and dynamics of the pyroglutamylated RF-amide peptide QRFP receptor GPR103” (Nature Communications, 2024) can be followed below.

Read-outs that look alike come from different tables or passages of the source. No end group written: not given here.

In the assay the target is T1, GPR103 V129^3.36A (Homo sapiens, UniProt Q96P65, V129A).
T1 construct: we used human full-length QRFPR-encoding plasmids; expressed in transfected cells; host or cells: HEK293 cells, pCAGGS vector
T1 sequence (Q96P65 1-431 V129A): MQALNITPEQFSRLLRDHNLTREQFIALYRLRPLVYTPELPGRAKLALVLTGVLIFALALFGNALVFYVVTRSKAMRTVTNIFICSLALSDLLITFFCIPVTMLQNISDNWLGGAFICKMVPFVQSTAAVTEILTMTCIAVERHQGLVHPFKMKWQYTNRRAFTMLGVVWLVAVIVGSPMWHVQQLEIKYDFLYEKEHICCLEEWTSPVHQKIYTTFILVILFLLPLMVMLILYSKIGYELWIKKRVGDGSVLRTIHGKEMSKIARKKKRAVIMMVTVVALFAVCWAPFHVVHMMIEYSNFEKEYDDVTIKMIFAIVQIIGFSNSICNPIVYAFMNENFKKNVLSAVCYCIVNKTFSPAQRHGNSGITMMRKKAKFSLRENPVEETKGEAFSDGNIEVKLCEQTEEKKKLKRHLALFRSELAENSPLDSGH
Briefly: TGFα shedding assay; Exp. level WT (1:20). Type of assay: cell-based. The procedure: For the TGFα shedding assay and the flow cytometry analysis, we used human full-length QRFPR-encoding plasmids. Specifically, GPR103 was N-terminally modified with an HA signal sequence followed by a FLAG epitope and then a flexible linker ([…]; the FLAG epitope is underlined) and inserted into the pCAGGS vector. Plasmid encoding GPR103 mutants were generated using Quickchange Site-Directed Mutagensis kit (Agilent).
The TGFα shedding assay was performed as described previously with minor modifications. Plasmid transfection was performed in a 6-well plate with a mixture of 500 ng (per well in a 6-well plate) AP-TGFα-encoding plasmid and 200 ng GPR103-encoding plasmid. After 1-day culture, the transfected cells were harvested by trypsinization, pelleted by centrifugation at 190 × g for 5 min, and washed once with 5 mM HEPES (pH 7.4)-containing Hank’s Balanced Salt Solution (HBSS). After centrifugation, the cells were resuspended in 8 mL of the HEPES-containing HBSS. The cell suspension was seeded in a 96-well culture plate (cell plate) at a volume of 90 μL (per well hereafter) and incubated in a 37 °C incubator with 5% CO2 for 30 min. […] After spinning the cell plates at 190 × g for 2 min, 80 μL of conditioned media was transferred to an empty 96-well plate (conditioned media (CM) plate). Then, 80 μL of AP reaction solution (10 mM p-nitrophenylphosphate (p-NPP), 120 mM Tris-HCl (pH 9.5), 40 mM NaCl, and 10 mM MgCl2) was dispensed into the cell plates and the CM plates. Absorbance at 405 nm of the plates was measured using a microplate reader (SpectraMax 340 PC384, Molecular Devices) before and after 1-h incubation at room temperature. Ligand-induced AP-TGFα release was calculated by subtracting spontaneous AP-TGFα release signal from ligand-induced AP-TGFα release signal. The AP-TGFα release signals were fitted to a four-parameter sigmoidal concentration–response curve, using the Prism 10 software (GraphPad Prism). For each replicate experiment, the pEC50 parameter (negative logarithmic values of EC50 values) of the individual GPR103 mutants were normalized to that of the wild-type GPR103 performed in parallel, and resulting ∆pEC50 values were used to denote ligand response activity of the mutants. […]
Exp. le vel: WT (1:5 0)Exp. le vel: WT (1:5 0)Exp. le vel: WT (1:5 0)Exp. le vel: WT (1:2 0)Exp. le vel: WT (1:2 0)Exp. le vel: WT (1:1 0) […]
L1 4N - t e r mA F2 5N - t e r mA I 2 6N - t e r mA Y 2 9N - t e r mA C 9 82 .5 7A T10 22 .6 1A Exp . l eve l: WT (1 :5)Exp . l evel : >WT (1 :1)Exp. le vel: WT (1:2 0)Exp. le vel: WT (1:2 0)Exp. le vel: WT (1:5 0)Exp . l eve l: WT (1 :1) […]
Exp. le vel: WT (1:1 0)Exp. le vel: WT (1:2 0) C 1 1 83 .2 5AExp. le vel: WT (1:5 0)Exp. le vel: WT (1:5 0)Exp. le vel: WT (1:2 0)Exp . l eve l: WT (1 :5) […]
Exp. le vel: WT (1:5 0)Exp. le vel: WT (1:1 0)Exp. le vel: WT (1:5 0) E203ECL2AExp . l evel : >WT (1 :1)Exp. le vel: WT (1:5 0)Exp. le vel: WT (1:5 0) […]
Exp . l eve l: WT (1 :1) F28Exp. le vel: WT (1:5 0) C 2 8 56 .4 7AExp. le vel: WT (1:2 0) WExp. le vel: WT (1:2 0) F28Exp. le vel: WT (1:5 0)Exp . l evel : >WT (1 :1) […]
Exp. le vel: WT (1:5 0)Exp. le vel: WT (1:5 0) C 3 2 77 .4 8AExp . l eve l: WT (1 :5)Exp . l evel : >WT (1 :1)Exp . l evel : >WT (1 :1) […]
Suppl eme nt ary Figure 1 | Mutational analysis of GPR103. […]
mutants. Data are presented as mean values ± SEM, normally n=3-5; dots), each performed in triplicate. b-d Cell-surface expression (b) and QRFP26-in-duced activation of GPR103 (c, d) were analyzed by the flow cytometry and the TGFα shedding assay, respectively. From the concentration–response curves (a), Emax (c) and ΔpEC50 (d) values relative to the wild type were calculated. Colors in the mutant bars indicate an expression level matching to that of titrated wild type. Statistical analyses were performed using the ordinary one-way ANOVA followed by Dunnett tests with the expression-matched […]

One may read the EC50 as the concentration that produces a half-maximal response. The low end stands for a more potent agent, the high end for a less potent agent. Turning to TSGPLGNLAEELNGYSRKKGGFSFRF-NH2 [QRFP26], the Emax (Exp. #1) turned out to be 92.74 % WT; the Emax (Exp. #2) is reported as 87.58 % WT; the Emax (Exp. #3) is reported as 97.49 % WT; the Emax (mean, read-out: Emax) came out at 92.6%; the Emax (n = 3, read-out: Emax) amounted to 96.2 ± 2.3%. The substance also showed an EC50 (n = 3) of 135 nM.
